Results as given in patent US8895564B2, “Biguanide derivative compound” (Nihon University, priority 2010, dated 2014).

Experiments:
[1] = Cytotoxic test, alamar blue assay; assay type: cell-based; settings: human, undifferentiated SH-SY5Y neuroblastoma cells, 24 hours exposure, concentration at which respiratory activity decreased to 50%, read-out: IC50 Cytotoxicity
Procedure: Using SH-SY5Y, a cytotoxic test was performed. In this test also, memantine and amiloride were used as control compounds.
The SH-SY5Y neuroblastoma cell line was purchased from American Type Culture Collection. The cells were cultured in the medium containing penicillin (100 U/mL), streptomycin (100 U/mL), and inactivated fetal bovine serum (Gibco). The cells were maintained in a CO2 incubator at 37° C. under the conditions of 95% air and 5% CO2.
Undifferentiated SH-SY5Y cells were exposed to various concentrations of Compounds 1, 2, and 3 for 24 hours. The alamar blue stock solution was transferred to a 96-well plate so that the final assay volume was 100 μL/well with a final alamar blue concentration of 10%. Six hours later, reduced alamar blue was measured at a wavelength of 570 nm. As to the survival rate (%), assuming that the mitochondrial respiratory activity in the drug-free cells as 100%, the respiratory activity of the cells exposed to Compounds 1, 2, and 3 for 24 hours was expressed as relative values.

[2] = molecular target: NR1/NR2A (Rattus norvegicus, UniProt P35439+Q00959); experiment: Inhibition of NMDA receptor NR1/NR2A activity in Xenopus laevis oocytes, two-electrode voltage clamp method
Procedure: The effect of the compound of the present invention on NMDA receptors was measured by the two-electrode voltage clamp method.
(1) Preparation of the NMDA receptor-expressing Xenopus laevis oocytes
Into the oocytes, cRNA of the NR1 subunit and cRNA of the NR2 subunit of the NMDA receptor were injected at a ratio of 1:5 (0.1 to 4 ng of NR1 and 0.5 to 20 ng of NR2), whereby the oocytes expressing NMDA receptors were obtained.
(2) The oocytes thus obtained were cultured in the medium (96 mM NaCl, 2 mM KCl, 1 mM MgCl2, 1.8 mM CaCl2, 5 mM Na-HEPES, 2.5 mM sodium pyruvate, 50 mg/mL gentamicin, pH=7.5) at 19° C. for 1 to 3 days.
On the day of measurement, after injecting K^+-BAPTA into the oocytes, the activity of the receptor was measured by the two-electrode voltage clamp method to be described later using a recording buffer (96 mM NaCl, 2 mM KCl, 1.8 mM BaCl2, 10 mM Na-HEPES, pH=7.5).
Among them, because NR1/NR2A is considered to be most prevalently expressed in the brain, the inhibitory effect on the activity of NR1/NR2A was measured in the following tests.
(3) Two-electrode voltage clamp method
Using the two-electrode voltage clamp amplifier CEZ-1250 (NIHON KOHDEN CORPORATION), the electric current which has passed through the entire oocyte membrane was measured. Electrodes were filled with 3M potassium chloride and the resistance was set at 0.4 to 4 MΩ. Also, for measurement, glutamic acid and glycine were added as the NMDA receptor agonists.
(4) To the oocytes obtained by the aforementioned method, various concentrations of compounds were added. Setting the voltage clamp at Vh=−70 mV (resting membrane potential), the inhibitory effect on the activity of NR1/NR2A was measured.
The values obtained from four to five oocytes were averaged out and the resulting value ±S.E.M. was obtained as the measurement value.

[3] = molecular target: T1, ASIC1a (Homo sapiens, UniProt P78348); experiment: Inhibition of ASIC1a current in ASIC1a-expressing Xenopus laevis oocytes, two-electrode voltage clamp method; assay type: cell-based; settings: current induced by shifting pH from 7.5 to 6.0; four to five oocytes
T1 construct: expressed in transfected cells; host or cells: Xenopus laevis oocytes injected with capped cRNA
T1 sequence (P78348 1-528): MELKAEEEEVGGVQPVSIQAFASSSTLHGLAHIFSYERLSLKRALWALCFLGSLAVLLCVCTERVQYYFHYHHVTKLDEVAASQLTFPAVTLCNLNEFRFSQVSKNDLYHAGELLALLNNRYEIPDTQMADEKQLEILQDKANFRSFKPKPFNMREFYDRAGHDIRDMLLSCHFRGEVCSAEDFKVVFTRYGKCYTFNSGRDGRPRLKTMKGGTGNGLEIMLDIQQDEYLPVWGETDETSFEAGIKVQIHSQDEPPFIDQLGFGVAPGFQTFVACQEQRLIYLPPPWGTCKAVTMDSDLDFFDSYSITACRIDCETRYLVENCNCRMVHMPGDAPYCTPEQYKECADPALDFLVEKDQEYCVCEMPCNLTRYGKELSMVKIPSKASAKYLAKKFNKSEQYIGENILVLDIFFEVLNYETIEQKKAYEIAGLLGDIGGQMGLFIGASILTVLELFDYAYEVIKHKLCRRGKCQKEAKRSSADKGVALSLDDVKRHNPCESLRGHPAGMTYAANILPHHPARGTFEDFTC
Procedure: (1) Preparation of the ASIC1a-expressing Xenopus laevis oocytes
Using the RNeasy Protect Mini Kit (QIAGEN), total RNA was prepared from HEK293 cells. Subsequently, using the High Fidelity RNA PCR kit (TAKARA BIO INC.), first strand cDNA was synthesized, and using this first strand cDNA as a template, PCR was performed. The sense-strand primer for PCR was: […] (SEQ ID NO: 1) and the antisense-strand primer for PCR was: […] (SEQ ID NO: 2), and the PCR conditions were such that one cycle consisting of 95° C. for 30 seconds, 55° C. for 30 seconds, and 72° C. for 90 seconds was repeated 30 cycles. The PCR product was inserted into the PCR2.1 vector, and the resulting vector was further subcloned into the pcDNA3.1 (−) vector. From the ASIC1a plasmid which was linearized by the BamHI enzyme, capped cRNA was synthesized using the mMessage mMachine Kits (Ambion).

Sequence of NR1/NR2A (Q00959 23-1464, other chains not shown): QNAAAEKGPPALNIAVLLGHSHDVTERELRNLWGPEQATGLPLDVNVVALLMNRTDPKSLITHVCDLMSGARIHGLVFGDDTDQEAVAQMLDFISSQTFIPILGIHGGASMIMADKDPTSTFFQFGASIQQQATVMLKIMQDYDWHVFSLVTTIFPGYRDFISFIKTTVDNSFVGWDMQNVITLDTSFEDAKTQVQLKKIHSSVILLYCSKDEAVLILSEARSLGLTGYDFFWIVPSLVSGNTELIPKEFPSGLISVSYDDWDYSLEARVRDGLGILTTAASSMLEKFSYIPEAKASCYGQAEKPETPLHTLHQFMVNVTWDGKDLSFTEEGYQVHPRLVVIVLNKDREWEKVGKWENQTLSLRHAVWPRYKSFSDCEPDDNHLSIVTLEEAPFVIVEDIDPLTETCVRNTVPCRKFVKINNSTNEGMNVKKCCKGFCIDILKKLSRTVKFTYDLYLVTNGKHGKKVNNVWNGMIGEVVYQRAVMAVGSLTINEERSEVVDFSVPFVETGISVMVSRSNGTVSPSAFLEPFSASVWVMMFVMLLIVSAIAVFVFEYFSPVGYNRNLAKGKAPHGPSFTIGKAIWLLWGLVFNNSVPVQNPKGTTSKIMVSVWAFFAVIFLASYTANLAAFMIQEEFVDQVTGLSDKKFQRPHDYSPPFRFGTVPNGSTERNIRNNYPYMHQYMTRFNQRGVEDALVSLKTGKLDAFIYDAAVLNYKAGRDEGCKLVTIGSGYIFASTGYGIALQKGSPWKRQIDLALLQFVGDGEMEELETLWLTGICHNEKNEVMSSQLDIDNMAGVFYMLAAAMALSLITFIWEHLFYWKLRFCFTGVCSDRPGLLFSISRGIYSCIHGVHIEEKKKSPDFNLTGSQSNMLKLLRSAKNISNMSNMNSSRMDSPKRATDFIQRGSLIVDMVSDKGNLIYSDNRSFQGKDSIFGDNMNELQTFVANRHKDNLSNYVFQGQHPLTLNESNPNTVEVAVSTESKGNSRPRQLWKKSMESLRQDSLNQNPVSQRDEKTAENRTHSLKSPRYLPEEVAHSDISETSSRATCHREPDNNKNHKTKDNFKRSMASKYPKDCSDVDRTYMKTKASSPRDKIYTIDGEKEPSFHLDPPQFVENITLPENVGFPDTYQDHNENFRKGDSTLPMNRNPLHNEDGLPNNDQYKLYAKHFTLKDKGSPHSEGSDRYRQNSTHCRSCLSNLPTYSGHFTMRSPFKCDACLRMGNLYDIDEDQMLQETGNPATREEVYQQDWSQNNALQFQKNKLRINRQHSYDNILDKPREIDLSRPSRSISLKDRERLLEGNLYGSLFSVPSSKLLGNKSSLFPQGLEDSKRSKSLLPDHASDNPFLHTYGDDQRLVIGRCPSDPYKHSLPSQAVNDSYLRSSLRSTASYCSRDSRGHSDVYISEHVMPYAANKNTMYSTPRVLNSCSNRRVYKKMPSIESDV

With N=C(NCCc1ccccc1)NC(=N)NNC(=O)c1nc(Cl)c(N)nc1N [Compound 1] the IC50 at 24 h [1] was 2680 µM, the IC50 [2] was 3500 nM and the IC50 [3] was 4700 nM.

With N=C(NCCc1ccc(Cl)cc1)NC(=N)NNC(=O)c1nc(Cl)c(N)nc1N [Compound 2, 1-(3,5-diamino-6-chloropyrazinamide)-5-[2-(4-chlorophenyl)ethyl]biguanide] the IC50 at 24 h [1] was 978 µM, the IC50 [2] was 230 nM and the IC50 [3] was 490 nM.

With N=C(N)NC(=O)c1nc(Cl)c(N)nc1N [Amiloride, reference compound] the IC50 at 24 h [1] was 563 µM and the IC50 [2] was 117000 nM.

With CC12CC3CC(C)(C1)CC(N)(C3)C2 [Memantine, reference compound] the IC50 at 24 h [1] was 146 µM and the “IC50 ASIC1a” value [3] was “no effect”.

N=C(NCCc1ccc(Cl)c(Cl)c1)NC(=N)NNC(=O)c1nc(Cl)c(N)nc1N [Compound 3] gave an IC50 at 24 h [1] of 277 µM, an IC50 [2] of 300 nM and an IC50 [3] of 210 nM.
